# Test results published in patent US11007276B2, “Intracellular substance transport system and use thereof” (NATIONAL UNIVERSITY CORPORATION HOKKAIDO UNIVERSITY, priority 2016, dated 2021).
# Key:
# [1] = test system: cultured cancer cells that express the target kinase group; settings: cultured cancer cells expressing the target kinase group; cited from earlier work
# HepG2 cells = settings: Lin, L. et al., Cancer Res. 2006; cited from earlier work
# HepG2 liver cancer cells [2] = test: Hepatocellular carcinoma killing effect, cell viability assay (Cell Counting Kit-8), 96 h coculture; type: cell-based, human
# Experimental: HepG2 cells (5×10^4/[…]/well) were incubated for 24 hours in a 37° C. and 5% CO2 atmosphere, and compounds 7, 15, and 20 (10 μL of a solution brought to 1 μM by dissolution in MilliQ) were then respectively added per 90 μL of the medium and the final concentration was adjusted to 100 nM. At 96 hours after the start of coculture, washing was performed 3 times with the medium component and 10 μL of Cell Counting Kit-8 (Dojindo, Kumamoto, Japan) was added to the cell culture medium; incubation was carried out for 1.5 hours in a 37° C. and 5% CO2 atmosphere; and the viable cell percentage was quantitated by measurement of the absorbance at 450 nm. A 100 nM 5-fluorouracil solution (5-FU) was used as a control agent (FIG. 11).
# With reference to the preceding experimental results (FIG. 11), an evaluation of the dose dependence and a determination of the IC50 value were performed for the antitumor effect of the inhibitor 7-bearing, phospholipid-coated fluorescent nanoparticles and the inhibitor 15-bearing, phospholipid-coated fluorescent nanoparticles, which had been confirmed to have a significant inhibitory activity on cancer cell growth versus the 5-FU comparative control agent. […]
# various glycosidases = settings: free small-molecule compounds; cited from earlier work
# HepG2 liver cancer cells [3] = test: Hepatocellular carcinoma killing action of sorafenib derivative 32, cell viability assay, 48 h coculture; type: cell-based; settings: Homo sapiens; HepG2, 48 hours, small molecule not carried on nanoparticles
# Experimental: At 48 hours after the start of coculture, washing was performed 3 times with the medium component and 10 μL of Cell Counting Kit-8 (Dojindo, Kumamoto, Japan) was added to the cell culture medium; incubation was carried out for 1.5 hours in a 37° C. and 5% CO2 atmosphere; and the cancer cell viability was quantitated by measurement of the absorbance at 450 nm (FIG. 15).
# [4] = test system: MCF-7 breast cancer cells; test: Breast cancer cell killing action, viability by MTA/MTT assay (Cell Counting Kit-8); type: cell-based, human; settings: 100 μM cisplatin, MCF-7, 96 hours, microscopy
# Experimental: Quantitation of dead cells by the MTA assay: MCF7 cells (5×10^3/100 μL/well) were incubated for 24 hours in a 37° C. and 5% CO2 atmosphere, and QD-anchored inhibitor 7 (1 μM, 10±L/MilliQ), QD control (1 μM, 10 μL/MilliQ), compound 7 (1 μM, 10 μL/MilliQ), and cisplatin (1 mM, 10 μL/MilliQ) were then respectively added per 90 μL of the medium and the final concentration was adjusted to 100 nM (but 100 μM for the cisplatin). At 96 hours after the start of culture, washing was performed 3 times with the medium component and 10 μL of the cell culture medium was recovered. Cell Counting Kit-8 solution (Dojindo, Kumamoto, Japan) was added; incubation was carried out for 1.5 hours in a 37° C. and 5% CO2 atmosphere; and the viable cell percentage was quantitated by measurement of the absorbance at 450 nm.
# Quantitation of dead cells by the MTT assay: MCF-7 cells (5×10^4/[…]/well) were incubated for 24 hours in a 37° C. and 5% CO2 atmosphere, and QD-anchored inhibitor 15 (1 μM, 10 μL/MilliQ) was then respectively added per […] of the medium and the final concentration was adjusted to 100 nM (but 100 μM for the cisplatin). […]
compound,measurement,setting,value
CNC(=O)c1cc(Oc2ccc(NC(=O)Nc3ccc(Cl)c(C(F)(F)F)c3)cc2)ccn1 [sorafenib],IC50,[1],4.5 µM
same,IC50,HepG2 cells,4.5 µM
"O=c1[nH]cc(F)c(=O)[nH]1 [5-FU, 5-fluorouracil]",antitumor activity,"HepG2 liver cancer cells [2]; 100 nM, HepG2, coculture for 96 hours",a significant antitumor activity was not observed
same,IC50,"HepG2 liver cancer cells [2]; Homo sapiens, HepG2, 96 hours of coculture, 5 to 100 nM",> 0.1 µM
CC(=O)CCCC(=O)Nc1ccc(O[C@@H]2OC(CO)[C@@H](O)C(O)C2NC(C)=O)c(C(F)F)c1 (stereo partly drawn) [compound 7],native IC50 for various glycosidases in vitro,various glycosidases,on the order of mM
CC(=O)CCCC(=O)Nc1ccc(O[C@]2(C(=O)O)CC(O)[C@@H](NC(C)=O)C([C@H](O)[C@H](O)CO)O2)c(C(F)F)c1 (stereo partly drawn) [compound 20],native IC50 for various glycosidases in vitro,various glycosidases,on the order of mM
CC(=O)CCCC(=O)Nc1ccc(O[C@@H]2OC(CO)[C@H](O)C(O)C2O)c(C(F)F)c1 (stereo partly drawn) [compound 15],native IC50 for various glycosidases in vitro,various glycosidases,on the order of mM
CC(=O)CCCCNC(=O)c1cc(Oc2ccc(NC(=O)Nc3ccc(Cl)c(C(F)(F)F)c3)cc2)ccn1 [compound 32],IC50,HepG2 liver cancer cells [3],2.1 µM
N.N.[Cl][Pt][Cl] [cisplatin],floating dead cells with altered shapes,[4],floating dead cells with altered shapes were observed
